Earlier results on one molecule are cited in patent publication US20050267212A1, “Omega-3 fatty acids in the treatment of depression” (priority 1997, published 2005).

The data set deals with T1, cyclooxygenase-2 (Homo sapiens, UniProt P35354).
T1 sequence (P35354 18-604): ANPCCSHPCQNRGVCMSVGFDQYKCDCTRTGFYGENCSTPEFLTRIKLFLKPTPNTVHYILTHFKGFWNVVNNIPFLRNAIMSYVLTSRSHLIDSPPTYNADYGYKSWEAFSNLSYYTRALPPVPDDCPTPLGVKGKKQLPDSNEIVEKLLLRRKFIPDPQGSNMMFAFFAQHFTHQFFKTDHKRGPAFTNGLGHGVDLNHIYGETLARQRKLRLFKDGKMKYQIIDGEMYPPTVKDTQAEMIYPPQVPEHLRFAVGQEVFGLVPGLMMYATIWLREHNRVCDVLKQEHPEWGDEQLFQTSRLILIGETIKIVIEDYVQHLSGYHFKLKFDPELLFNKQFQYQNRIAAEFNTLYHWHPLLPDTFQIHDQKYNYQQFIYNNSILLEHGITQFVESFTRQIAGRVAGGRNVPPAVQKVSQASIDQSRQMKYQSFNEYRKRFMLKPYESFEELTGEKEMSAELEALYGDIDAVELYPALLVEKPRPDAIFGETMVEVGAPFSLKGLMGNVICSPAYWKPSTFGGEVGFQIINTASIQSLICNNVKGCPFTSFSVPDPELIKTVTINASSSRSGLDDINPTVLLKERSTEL
Conditions: cultured human mast cells.

Regarding `CC/C=C\C/C=C\C/C=C\C/C=C\C/C=C\CCCC(=O)O` [EPA, eicosapentanoic acid], the “effect on cyclooxygenase-2” value is reported as “direct inhibition”.
